Earlier results on one substance are cited in patent publication US20060269583A1, “Process and composition for treating wood” (priority 2005, published 2006).

The conditions of this data set: in about 10 years under a given set of field conditions.

Turning to copper amine carbonate complex, the “copper removed by leaching” value is recorded as at most 80%.
